Here are results for one molecule from patent US20240268379A1, “BIODEGRADABLE PVA/PVP HYDROGELS, USES AND PREPARATION THEREOF” (Bar-Ilan University, priority 2021, published 2024).

This data set is described as follows: Thermal stability of thymol by TGA-MS. It counts as physicochemical. As to conditions: 20° C./min, nitrogen. The procedure: Thermal gravimetric analysis (TGA) was carried out using SETSYS, by Setaram. The released products during the measurements were obtained by using Hiden HPR-20 QIC mass spectrometer (TGA) coupled with mass spectroscopy (MS). The analysis was conducted to study the stability effect of the PVA/PVP hydrogel, under heat treatment, on thymol, entrapped in the hydrogel, relative to thymol pure form. The tested samples were heated from 30° C. up to 630° C. (20° C./min heat rate) under nitrogen inert atmosphere (20 ml/min nitrogen flow rate).

Take `Cc1ccc(C(C)C)c(O)c1` [pure thymol, thymol]: the “thymol loss end temperature” value came to 130 °C and the “thymol loss start temperature” value stood at 70 °C.
